ChEMBL document CHEMBL4229529, “Synthesis, molecular docking, and biological activity of 2-vinyl chromones: Toward selective butyrylcholinesterase inhibitors for potential Alzheimer's disease therapeutics” (Bioorg Med Chem, 2018)
Active and inactive are the calls of the source. The rule behind the calls is not given here.

How the values were obtained:
Cholinesterase [1] = molecular target: T1, Cholinesterase (Equus caballus, UniProt P81908)
Description: Inhibition of equine serum BChE using butylthiocholine iodide as substrate incubated for 10 mins followed by substrate addition by Ellman's method

Liver carboxylesterase [2] = molecular target: T2, Liver carboxylesterase (Sus scrofa, UniProt Q29550); assay: in vitro; conditions: pig, porcine liver carboxylesterase, probe 4-nitrophenol acetate
T2 sequence (Q29550 whole entry): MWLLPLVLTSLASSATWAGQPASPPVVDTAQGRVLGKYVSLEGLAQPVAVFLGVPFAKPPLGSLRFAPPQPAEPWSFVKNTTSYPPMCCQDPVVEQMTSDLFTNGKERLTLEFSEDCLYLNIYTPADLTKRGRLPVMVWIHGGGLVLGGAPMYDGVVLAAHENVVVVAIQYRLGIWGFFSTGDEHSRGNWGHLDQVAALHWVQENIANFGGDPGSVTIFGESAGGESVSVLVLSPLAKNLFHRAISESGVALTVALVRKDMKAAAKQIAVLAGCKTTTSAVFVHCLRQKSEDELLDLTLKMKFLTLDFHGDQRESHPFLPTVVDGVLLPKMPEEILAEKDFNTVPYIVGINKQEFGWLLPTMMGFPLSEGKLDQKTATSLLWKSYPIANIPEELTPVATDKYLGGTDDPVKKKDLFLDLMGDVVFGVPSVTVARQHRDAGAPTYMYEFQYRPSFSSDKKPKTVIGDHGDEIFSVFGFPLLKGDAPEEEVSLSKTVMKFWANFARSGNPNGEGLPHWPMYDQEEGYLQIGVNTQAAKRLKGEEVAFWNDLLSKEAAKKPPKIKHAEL
Description: Inhibition of porcine liver carboxylesterase at 20 uM using 4-nitrophenol acetate as substrate incubated for 10 mins followed by substrate addition by spectrophotometric method relative to control

Acetylcholinesterase = Acetylcholinesterase (Homo sapiens, UniProt P22303)
Description: Inhibition of human erythrocyte AChE using acetylthiocholine iodide as substrate incubated for 10 mins followed by substrate addition by Ellman's method

[3] = molecular target: Cholinesterase (Equus caballus) (UniProt P81908); assay: Inhibition of equine serum BChE at 20 uM using butylthiocholine iodide as substrate incubated for 10 mins followed by substrate addition by Ellman's method relative to control
Liver carboxylesterase [4] = molecular target: T2, Liver carboxylesterase
Description: Inhibition of porcine liver carboxylesterase using 4-nitrophenol acetate as substrate incubated for 10 mins followed by substrate addition by spectrophotometric method

[5] = molecular target: Cholinesterase (Equus caballus) (UniProt P81908); assay: Non-competitive inhibition of equine serum BChE using butylthiocholine iodide as substrate incubated for 10 mins followed by substrate addition by Lineweaver-Burk double-reciprocal plot analysis
Cholinesterase [6] = molecular target: T1, Cholinesterase; assay: Competitive inhibition of equine serum BChE using butylthiocholine iodide as substrate incubated for 10 mins followed by substrate addition by Lineweaver-Burk double-reciprocal plot analysis

T1 sequence (P81908 whole entry): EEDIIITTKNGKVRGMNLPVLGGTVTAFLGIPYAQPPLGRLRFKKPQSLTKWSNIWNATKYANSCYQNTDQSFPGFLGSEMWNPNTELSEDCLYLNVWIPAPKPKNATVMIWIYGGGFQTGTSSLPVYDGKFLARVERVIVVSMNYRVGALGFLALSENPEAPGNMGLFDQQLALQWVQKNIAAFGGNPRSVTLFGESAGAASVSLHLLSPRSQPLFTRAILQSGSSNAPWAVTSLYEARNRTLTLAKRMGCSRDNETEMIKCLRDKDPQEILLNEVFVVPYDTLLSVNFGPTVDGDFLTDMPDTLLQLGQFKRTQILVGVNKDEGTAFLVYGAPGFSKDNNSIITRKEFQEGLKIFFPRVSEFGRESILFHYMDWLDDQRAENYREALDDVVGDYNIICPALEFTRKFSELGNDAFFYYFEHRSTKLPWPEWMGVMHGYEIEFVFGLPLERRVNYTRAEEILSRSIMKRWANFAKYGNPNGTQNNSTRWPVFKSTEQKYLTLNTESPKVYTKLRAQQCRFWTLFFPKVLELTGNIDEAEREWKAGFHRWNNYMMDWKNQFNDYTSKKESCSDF
Chain of Cholinesterase (Equus caballus) (P81908 whole entry): as above
Chain of Acetylcholinesterase (P22303 whole entry): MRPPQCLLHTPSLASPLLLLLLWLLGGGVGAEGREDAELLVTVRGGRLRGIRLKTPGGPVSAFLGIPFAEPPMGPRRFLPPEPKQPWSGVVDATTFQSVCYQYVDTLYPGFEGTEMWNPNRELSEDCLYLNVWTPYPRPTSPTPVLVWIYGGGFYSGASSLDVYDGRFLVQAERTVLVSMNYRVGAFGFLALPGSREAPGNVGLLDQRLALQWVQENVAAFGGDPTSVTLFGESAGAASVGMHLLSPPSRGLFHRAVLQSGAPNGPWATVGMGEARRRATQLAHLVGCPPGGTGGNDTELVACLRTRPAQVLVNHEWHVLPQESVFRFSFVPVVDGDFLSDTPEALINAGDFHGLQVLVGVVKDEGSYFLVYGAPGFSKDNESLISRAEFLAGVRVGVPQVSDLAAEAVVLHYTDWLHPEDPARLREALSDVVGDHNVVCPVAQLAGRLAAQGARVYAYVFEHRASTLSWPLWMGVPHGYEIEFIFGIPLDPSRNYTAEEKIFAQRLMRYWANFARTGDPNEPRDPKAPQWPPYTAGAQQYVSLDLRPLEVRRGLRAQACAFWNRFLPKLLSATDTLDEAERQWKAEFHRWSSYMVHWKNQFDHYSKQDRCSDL

With `C=Cc1oc2c(OCC)cccc2c(=O)c1CN(/C=C/C(C)=O)Cc1ccccc1` as the compound, how does the IC50 (Cholinesterase [1]) read?
Its IC50 is 50.1 µM.

How did the inhibition at 10 min, 20 µM (Liver carboxylesterase [2]) turn out when `CCOc1cccc2c(=O)c3c(oc12)CCN(/C(=C/C(=O)OC)C(=O)OC)C3` was run?
Its inhibition at 10 min, 20 µM is 3.5%.

What about the IC50 (Cholinesterase [1]) of the same compound?
Its IC50 is over 20 µM.

What about the IC50 (Acetylcholinesterase) of the same compound?
Its IC50 is over 20 µM.

And the inhibition [3]?
Its inhibition is 20.7%.

And the IC50 (Liver carboxylesterase [4])?
Its IC50 is over 20 µM.

Which inhibition at 10 min, 20 µM (Liver carboxylesterase [2]) does the source give for `C=Cc1oc2ccc(Br)cc2c(=O)c1CN(/C=C/C(=O)OC)Cc1ccccc1` here?
Its inhibition at 10 min, 20 µM is 22.4%.

What about the IC50 (Cholinesterase [1]) of the same compound?
The IC50 was 2.27 µM.

And the IC50 (Acetylcholinesterase)?
Its IC50 is over 20 µM.

And the alphaKi [5]?
The alphaKi was 6.9 µM.

What about the IC50 (Liver carboxylesterase [4]) of the same compound?
The IC50 was over 20 µM.

And the Ki (Cholinesterase [6])?
Its Ki is 1.55 µM.

What does the source list for `COC(=O)/C=C(\C(=O)OC)N1CCc2oc3ccc(Br)cc3c(=O)c2C1`?
inhibition at 10 min, 20 µM (Liver carboxylesterase [2]): 5.1%; IC50 (Cholinesterase [1]): > 20 µM; IC50 (Acetylcholinesterase): > 20 µM; inhibition [3]: 4.3%; IC50 (Liver carboxylesterase [4]): > 20 µM

What does the source list for `CN1CCc2oc3ccc(Br)cc3c(=O)c2C1`?
IC50 (Cholinesterase [1]): > 20 µM; IC50 (Acetylcholinesterase): > 20 µM; inhibition [3]: 4.2%

What does the source list for `C=Cc1oc2ccc(Br)cc2c(=O)c1CN(Cc1ccccc1)/C(=C/C(=O)OC)C(=O)OC`?
inhibition at 10 min, 20 µM (Liver carboxylesterase [2]): 15.2%; IC50 (Cholinesterase [1]): > 20 µM; IC50 (Acetylcholinesterase): > 20 µM; inhibition [3]: 21.9%; IC50 (Liver carboxylesterase [4]): > 20 µM

`C=Cc1oc2c(OCC)cccc2c(=O)c1CN(C)/C=C/C(=O)OC` was tested. Which inhibition at 10 min, 20 µM (Liver carboxylesterase [2]) did it give?
Its inhibition at 10 min, 20 µM is 7.9%.

What about the inhibition [3] of the same compound?
Its inhibition is “inactive”.

And the IC50 (Liver carboxylesterase [4])?
Its IC50 is over 20 µM.

How did the inhibition at 10 min, 20 µM (Liver carboxylesterase [2]) turn out when `C=Cc1oc2c(OCC)cccc2c(=O)c1CN(/C=C/C(=O)OC)Cc1ccccc1` was run?
Its inhibition at 10 min, 20 µM is 25.9%.

And the IC50 (Cholinesterase [1])?
The IC50 was over 20 µM.

And the inhibition [3]?
The inhibition was 16.3%.

What about the IC50 (Liver carboxylesterase [4]) of the same compound?
Its IC50 is over 20 µM.

How did the IC50 (Cholinesterase [1]) turn out when `O=c1c2c(oc3ccccc13)CCN(Cc1ccccc1)C2` was run?
The IC50 was over 20 µM.

And the IC50 (Acetylcholinesterase)?
Its IC50 is over 20 µM.

What about the inhibition [3] of the same compound?
The inhibition was 13%.

How did the inhibition at 10 min, 20 µM (Liver carboxylesterase [2]) turn out when `O=c1c2c(oc3ccc(Br)cc13)CCN(Cc1ccccc1)C2` was run?
Its inhibition at 10 min, 20 µM is 31.2%.

What about the IC50 (Cholinesterase [1]) of the same compound?
Its IC50 is over 20 µM.

What about the IC50 (Acetylcholinesterase) of the same compound?
The IC50 was over 20 µM.

What about the inhibition [3] of the same compound?
The inhibition was 3.3%.

And the IC50 (Liver carboxylesterase [4])?
The IC50 was over 20 µM.

Which inhibition at 10 min, 20 µM (Liver carboxylesterase [2]) does the source give for `C=Cc1oc2c(OCC)cccc2c(=O)c1CN(Cc1ccccc1)/C(=C/C(=O)OC)C(=O)OC` here?
Its inhibition at 10 min, 20 µM is 14.4%.

What about the IC50 (Cholinesterase [1]) of the same compound?
Its IC50 is over 20 µM.

What about the inhibition [3] of the same compound?
Its inhibition is 11.2%.

And the IC50 (Liver carboxylesterase [4])?
The IC50 was over 20 µM.

With `C=Cc1oc2ccccc2c(=O)c1CN(C)/C=C/C(=O)OC` as the compound, how does the inhibition at 10 min, 20 µM (Liver carboxylesterase [2]) read?
The inhibition at 10 min, 20 µM was 6.3%.

And the IC50 (Cholinesterase [1])?
The IC50 was over 20 µM.

What about the inhibition [3] of the same compound?
The inhibition was 18.4%.

And the IC50 (Liver carboxylesterase [4])?
The IC50 was over 20 µM.

`CN1CCc2oc3ccccc3c(=O)c2C1` was tested. Which inhibition at 10 min, 20 µM (Liver carboxylesterase [2]) did it give?
Its inhibition at 10 min, 20 µM is 6.4%.

And the inhibition [3]?
Its inhibition is “inactive”.

And the IC50 (Liver carboxylesterase [4])?
Its IC50 is over 20 µM.

Which inhibition [3] does the source give for `O=[N+]([O-])c1ccc(OP(=O)(O)Oc2ccc([N+](=O)[O-])cc2)cc1` here?
The inhibition was “inactive”.

What does the source list for `C=Cc1oc2ccc(Br)cc2c(=O)c1CN(C)/C=C/C(=O)OC`?
inhibition at 10 min, 20 µM (Liver carboxylesterase [2]): 10.5%; IC50 (Cholinesterase [1]): > 20 µM; IC50 (Acetylcholinesterase): > 20 µM; inhibition [3]: 14.1%; IC50 (Liver carboxylesterase [4]): > 20 µM

With `C=Cc1oc2ccccc2c(=O)c1CN(/C=C/C(C)=O)Cc1ccccc1` as the compound, how does the inhibition at 10 min, 20 µM (Liver carboxylesterase [2]) read?
Its inhibition at 10 min, 20 µM is 10%.

And the IC50 (Cholinesterase [1])?
The IC50 was 4.75 µM.

And the IC50 (Acetylcholinesterase)?
The IC50 was over 20 µM.

What about the alphaKi [5] of the same compound?
The alphaKi was 9.14 µM.

What about the IC50 (Liver carboxylesterase [4]) of the same compound?
The IC50 was over 20 µM.

And the Ki (Cholinesterase [6])?
Its Ki is 2.12 µM.

Which inhibition at 10 min, 20 µM (Liver carboxylesterase [2]) does the source give for `C=Cc1oc2ccccc2c(=O)c1CN(Cc1ccccc1)/C(=C/C(=O)OC)C(=O)OC` here?
The inhibition at 10 min, 20 µM was 26.4%.

And the IC50 (Cholinesterase [1])?
The IC50 was 13.8 µM.

And the IC50 (Acetylcholinesterase)?
The IC50 was over 20 µM.

And the IC50 (Liver carboxylesterase [4])?
The IC50 was over 20 µM.

Which inhibition at 10 min, 20 µM (Liver carboxylesterase [2]) does the source give for `C=Cc1oc2ccccc2c(=O)c1CN(/C=C/C(=O)OC)Cc1ccccc1` here?
Its inhibition at 10 min, 20 µM is 23.6%.

And the IC50 (Cholinesterase [1])?
Its IC50 is 6.31 µM.

And the IC50 (Acetylcholinesterase)?
Its IC50 is over 20 µM.

And the alphaKi [5]?
Its alphaKi is 1.94 µM.

And the IC50 (Liver carboxylesterase [4])?
Its IC50 is over 20 µM.

What about the Ki (Cholinesterase [6]) of the same compound?
The Ki was 1.79 µM.

Which inhibition at 10 min, 20 µM (Liver carboxylesterase [2]) does the source give for `CCOc1cccc2c(=O)c3c(oc12)CCN(C)C3` here?
The inhibition at 10 min, 20 µM was 7.6%.

What about the IC50 (Acetylcholinesterase) of the same compound?
Its IC50 is over 20 µM.

What about the inhibition [3] of the same compound?
Its inhibition is “inactive”.

And the IC50 (Liver carboxylesterase [4])?
The IC50 was over 20 µM.

With `C=Cc1oc2ccc(Br)cc2c(=O)c1CN(/C=C/C(C)=O)Cc1ccccc1` as the compound, how does the inhibition at 10 min, 20 µM (Liver carboxylesterase [2]) read?
Its inhibition at 10 min, 20 µM is 4.6%.

What about the IC50 (Cholinesterase [1]) of the same compound?
Its IC50 is 13.5 µM.

What about the IC50 (Acetylcholinesterase) of the same compound?
Its IC50 is over 20 µM.

And the IC50 (Liver carboxylesterase [4])?
Its IC50 is over 20 µM.

Which IC50 (Cholinesterase [1]) does the source give for `CCOc1cccc2c(=O)c3c(oc12)CCN(Cc1ccccc1)C3` here?
Its IC50 is over 20 µM.

What about the IC50 (Acetylcholinesterase) of the same compound?
The IC50 was over 20 µM.

What about the inhibition [3] of the same compound?
Its inhibition is 13.2%.

With `COC(=O)/C=C(\C(=O)OC)N1CCc2oc3ccccc3c(=O)c2C1` as the compound, how does the inhibition at 10 min, 20 µM (Liver carboxylesterase [2]) read?
The inhibition at 10 min, 20 µM was 19.8%.

And the IC50 (Cholinesterase [1])?
The IC50 was over 20 µM.

And the inhibition [3]?
Its inhibition is 7.5%.

What about the IC50 (Liver carboxylesterase [4]) of the same compound?
Its IC50 is over 20 µM.
